Results published in PMC10429771, “Bioorthogonal activation of prodrugs, for the potential treatment of breast cancer, using the Staudinger reaction” (RSC Medicinal Chemistry, 2023).

Key:
[1] = system: L929 cells; assay: Azide-reporter generation by Western blotting, L929; format: cell-based, mouse; conditions: 50 μM, 72 h; lysates reacted with phosphine-PEG3-biotin
Procedure: (§1) For azide generation analysis in breast cancer cells and mouse fibroblasts, MCF-7 cells were cultured in 5% fetal bovine serum and RPMI 1640 medium and L929 cells were cultured in 10% fetal bovine serum and DMEM medium at 37 °C in a 5% CO2 incubator.
To analyse the engineered azide groups in glycoproteins in vitro, 4 × 10^4 cell per mL of MCF-7 and 1 × 10^4 cell per mL of L929 cells were seeded into 6-well plates and incubated with 50 μM Ac4ManNAz-, 4-, and 5-containing medium for 72 h at 37 °C CO2 incubator, respectively. Cells were then washed twice with ice cold PBS and lysed using ice cold RIPA buffer (Thermo Fisher Scientific, UK) with 1% protease inhibitor cocktail. Lysates were centrifuged at 12 000 rpm for 10 min at 4 °C to remove cell debris. The total protein of each sample was quantified by DC assay (Bio-rad DC Protein Assay Kit, Bio-rad, UK). The lysates were then incubated with 0.5 μM phosphine-PEG3-biotin (Thermo Fisher Scientific, UK) for 12 h at room temperature. The proteins from each sample were mixed with 1× sodium dodecyl sulfate (SDS) gel-loading buffer (125 mol L^−1 Tris, pH 6.8, 5% glycerol, 2% SDS, 1% β-mercaptoethanol, and 0.006% bromophenol blue) and boiled for 5 min. Then, 20 μg of proteins was separated by 8% SDS – polyacrylamide gel electrophoresis and transferred onto PVDF membranes. The membranes were blocked for 1.5 h at room temperature in 0.5% bovine serum albumin (BSA) containing 1× TBST solution (10 mol L^−1 Tris, pH 7.4, 100 mol L^−1 NaCl, and 0.1% Tween 20). Then, the membranes were incubated with streptavidin-HRP (Cell Signalling Technology, UK) containing 1× TBST solution for overnight at 4 °C. Next day, the membranes were washed three times using 1× TBST and protein band was detected with an ECL system.

[2] = Cell viability of L929 cells after azide-modified sugars (MTT); format: cell-based; conditions: mouse, L929 fibroblast cells, 50 μM sugar, no change compared to control
[3] = system: MCF-7 cells; assay: Azide-reporter generation by confocal microscopy (DBCO-Cy5 MFI), MCF-7; format: cell-based, human; conditions: breast cancer MCF-7 versus normal fibroblast L929
Procedure: as §1
(§2) For fluorescence quantification, 4 × 10^4 cell per mL of MCF-7 and 1 × 10^4 cell per mL of L929 cells were seeded into a 35 mm covered glass-bottom dishes and incubated with 50 μM Ac4ManNAz-, 4-, and 5-containing medium for 72 h at 37 °C CO2 incubator, respectively. Then to visualize the azide groups, the sugar-containing medium was removed and the cells were washed twice with PBS and further incubated with 20 μM dibenzylcyclooctyne-conjugated Cy5 (DBCO-Cy5)-containing fresh medium for 1 h at 37 °C. Then, the cells were washed twice with PBS and fixed with formaldehyde fixative for 10 min in dark conditions. After fixation, the cells were washed twice with PBS and mounted with 4,6-diamidino-2-phenylindole (DAPI) (5 μg mL^−1). The cells were observed using a confocal laser microscope (Nikon A1R Confocal with 405, 445, 488, 514, 561 and 640 nm lasers). The mean fluorescence intensity was analyzed using ImageJ software and the data were represented as absolute values.

[4] = system: L929 cells; assay: Azide-reporter generation by confocal microscopy (DBCO-Cy5 MFI), L929; format: cell-based, mouse; conditions: 50 μM, 72 h; DBCO-Cy5 20 μM 1 h
Procedure: as §1, §2

[5] = system: L929 cells; assay: MTT assay, prodrug activation and cytotoxicity in L929 cells; format: cell-based, mouse; conditions: for prodrug activation on L929 cells: L929 cells pre-treated with azido-sialic acid derivatives 4 and 5, 50 μM; for IC50: Mus musculus, MTT, mean ± SEM (n = 3); for IC50 on L929 cells relative to MCF-7 cells: non-engineered cells, L929 IC50 higher than MCF-7 IC50
Procedure: (§3) The in vitro prodrug activation and anticancer activity of compounds 10 and 12 was determined using the MTT assay. MCF-7 cells or L929 cells were incubated with 50 μM Ac4ManNAz-, 4-, and 5-containing RPMI medium or 50 μM Ac4ManNAz-, 4-, and 5-containing DMEM medium, respectively for 72 h at 37 °C CO2 incubator as described above. Then, the engineered and non-engineered MCF-7 cells or L929 cells were seeded on 96-well plates (4 × 10^4 cells per mL) or (1 × 10^5 cells per mL), respectively and incubated at 37 °C for 24 h. Cells were then treated with a range of concentration of both prodrugs 10 and 12 (0.001–10 μM) and incubated for 72 h. After incubation, the treatments-containing medium was removed and 20 μL of 0.5 mg mL^−1 MTT in PBS solution was added in each well for 4 h. The resulting formazan crystals were dissolved in 100 μL of DMSO after carefully removing the MTT solution. The absorbance was recorded at 570 nm by InfiniteF50 TECAN microplate reader. The cells without any treatment were used as the control. Assays were performed in three replicates, which the statistical mean and standard deviation were used to estimate the cell viability. IC50 (inhibitory concentration to induce 50% cell death) values were determined using GraphPad Prism 8.0.2 according to the fitted data.

[6] = system: MCF-7 cells; assay: MTT assay, prodrug activation and anticancer activity in MCF-7 cells; format: cell-based, human; conditions: for IC50: Homo sapiens, MTT, mean ± SEM (n = 3)
Procedure: as §3

[7] = L929, 4-engineered L929 cells (50 μM 4, 72 h pre-treatment)
[8] = L929, 5-engineered L929 cells (50 μM 5, 72 h pre-treatment)
[9] = L929, 72 h, non-engineered L929 cells, 72 h
[10] = L929, Ac4ManNAz-engineered L929 cells (50 μM, 72 h pre-treatment)
[11] = MCF7, 4-engineered MCF-7 cells (50 μM 4, 72 h pre-treatment)
[12] = MCF7, 5-engineered MCF-7 cells (50 μM 5, 72 h pre-treatment)
[13] = MCF7, 72 h, non-engineered MCF-7 cells, 72 h
[14] = MCF7, Ac4ManNAz-engineered MCF-7 cells (50 μM, 72 h pre-treatment)

IC50 [6, 13] [µM]	Structure (SMILES)	azide incorporation in L929 cells (Western blotting) [1]	viability at 50 µM [2] [%]	higher azide expression on MCF-7 cells versus L929 cells [3] [fold]	fluorescence in L929 cells (confocal) [4]	prodrug activation on L929 cells [5]	IC50 [5, 7] [µM]	IC50 [5, 8] [µM]	IC50 [5, 9] [µM]	IC50 [5, 10] [µM]	IC50 on L929 cells relative to MCF-7 cells [5]	IC50 [6, 11] [µM]	IC50 [6, 12] [µM]	IC50 [6, 14] [µM]	decrease in potency of prodrug versus doxorubicin ([6]; non-engineered MCF-7 cells, IC50 of prodrug 12 vs doxorubicin 11)
	CC(=O)N[C@H]1[C@H]([C@H](O)[C@H](O)CN=[N+]=[N-])OC(O)(C(=O)O)C[C@@H]1O (stereo in doubt) [Compound 4, 9-Azido-5-acetamido-3,5,9-trideoxy-β-D-glycero-D-galacto-2-nonulosonic acid]	did not show any azide-reporter generation	92.4 ± 1.6	~17	did not show any fluorescence										
	CC(=O)OC[C@H]1OC(OC(C)=O)[C@@H](NC(=O)CN=[N+]=[N-])[C@@H](OC(C)=O)[C@@H]1OC(C)=O (stereo partly drawn) [Ac4ManNAz, Tetra-O-acetyl azidomannosamine, reference compound]	caused the azide incorporation	97.5 ± 5.2												
	CC(=O)N[C@H]1[C@H]([C@H](OC(C)=O)[C@@H](CN=[N+]=[N-])OC(C)=O)O[C@@](OC(C)=O)(C(=O)O)C[C@@H]1OC(C)=O [Compound 5, 9-Azido-5-acetamido-2,4,7,8-tetracetyl-3,5,9-trideoxy-β-D-glycero-D-galacto-2-nonulosonic acid]	did not show any azide-reporter generation	122 ± 5.5	~17	did not show any fluorescence										
4.6 ± 0.19	COc1cccc2c1C(=O)c1c(O)c3c(c(O)c1C2=O)C[C@@](O)(C(=O)CO)C[C@@H]3OC1C[C@@H](NC(=O)c2ccccc2P(c2ccccc2)c2ccccc2)[C@@H](O)[C@@H](C)O1 (stereo partly drawn) [Dox-prodrug 12, 2-(Diphenylphosphino)-N-((2R,3R,4R)-3-hydroxy-2-methyl-6-(((1S,3S)-3,5,12-trihydroxy-3-(2-hydroxyacetyl)-10-methoxy-6,11-dioxo-1,2,3,4,6,11-hexahydrotetracen-1-yl)oxy)tetrahydro-2H-pyran-4-yl)benzamide]					No activation	11.2 ± 1.04	10.7 ± 0.22	11.3 ± 0.23	7.7 ± 0.26	approximately 2 fold	0.5 ± 0.03	1.6 ± 0.09	0.2 ± 0.01	more than 20 fold
0.2 ± 0.03	COc1cccc2c1C(=O)c1c(O)c3c(c(O)c1C2=O)C[C@@](O)(C(=O)CO)C[C@@H]3O[C@H]1C[C@H](N)[C@H](O)[C@H](C)O1 [Doxorubicin 11, doxorubicin, reference compound]								2.04 ± 0.009						

Structure (SMILES)	IC50 [6, 13] [µM]	azide incorporation in L929 cells (Western blotting) [1]	viability at 50 µM [2] [%]	higher azide expression on MCF-7 cells versus L929 cells [3] [fold]	fluorescence in L929 cells (confocal) [4]	prodrug activation on L929 cells [5]	IC50 [5, 7] [µM]	IC50 [5, 8] [µM]	IC50 [5, 9] [µM]	IC50 [5, 10] [µM]	IC50 on L929 cells relative to MCF-7 cells [5]	IC50 [6, 11] [µM]	IC50 [6, 12] [µM]	IC50 [6, 14] [µM]	decrease in potency of prodrug versus doxorubicin ([6]; non-engineered MCF-7 cells, IC50 of prodrug 12 vs doxorubicin 11)
O=C(Nc1ccc(N(CCCl)CCCl)cc1)c1ccccc1P(c1ccccc1)c1ccccc1 [N-mustard prodrug 10, N-(4-(Bis(2-chloroethyl)amino)phenyl)-2-(diphenylphosphaneyl)benzamide]	20.8 ± 1.27					No activation	29.9 ± 0.69	29.7 ± 1.2	31.4 ± 0.44	21.1 ± 0.58	approximately 2 fold	2.1 ± 1.11	9.3 ± 0.63	0.6 ± 0.08	
